In one test the test system is MOLM-13 cells. Put plainly: Cell proliferation assay (alamarBlue), MOLM-13. It counts as cell-based. The conditions noted are these: Homo sapiens, 96 hours incubation, inhibition of cell proliferation. The method, boiled down: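 IC50 = concentration giving 50% growth inhibition relative to buffer-treated cells, after subtracting baseline fluorescence taken before dosing. Compound applied at 1E-5 to 1E-8 M for 96 h at 37 °C in RPMI1640 with 10% FCS; alamarBlue signal at 530/590 nm.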

For a further test, the target named is T1, BRD4 (BD1) (Homo sapiens, UniProt O60885).
T1 construct: with relatively long constructs also being possible, preferably amino acids 44-168; made in house; host or cells: E. coli
Put plainly: Binding assay BRD4/acetylated peptide H4 (TR-FRET protein-protein interaction assay). The essentials:
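Displacement of biotin-Ac-H4 peptide from His6-tagged BRD4(BD1), final usually 10 nM, read as Eu-streptavidin to anti-His-XL665 TR-FRET (665/620 nm). Compounds tested at 11 doses up to 20 μM in duplicate, pH 7.5 HEPES, 22 °C then 4 °C incubation; IC50 by 4-parameter regression.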
In general terms: Time-resolved FRET reads energy transfer from a long-lived donor to a nearby acceptor.

Data on 25 compounds can be found in US9890147B2 (BAYER PHARMA AKTIENGESELLSCHAFT, priority 2012, dated 2018).

Broadly, the IC50 is the midpoint of a concentration-inhibition curve. A high value points to a need for much substance. In the case of `CNC(=O)N1N=C(c2ccc(-n3nc(-c4ccccc4)cc3C(F)(F)F)cc2)c2cc(OC)c(OC)cc2CC1C` (racemic) [Example 149, (±)-7,8-dimethoxy-N,4-dimethyl-1-{4-[3-phenyl-5-(trifluoromethyl)-1H-pyrazol-1-yl]phenyl}-4,5-dihydro-3H-2,3-benzodiazepine-3-carboxamide], the IC50 in the test on MOLM-13 cells stood at 3000 nM; on BRD4 (BD1), 1620 nM.

Regarding `CNC(=O)N1N=C(c2ccc(-n3ccc(-c4ccc(F)cc4)n3)cc2)c2cc(OC)c(OC)cc2CC1C` (racemic) [Example 150, (±)-1-{4-[3-(4-fluorophenyl)-1H-pyrazol-1-yl]phenyl}-7,8-dimethoxy-N,4-dimethyl-4,5-dihydro-3H-2,3-benzodiazepine-3-carboxamide], the IC50 was found to be 480 nM in the test on MOLM-13 cells and 80 nM at BRD4 (BD1).

Regarding `CNC(=O)N1N=C(c2ccc(-n3nc(C(F)(F)F)cc3C)cc2)c2cc(OC)c(OC)cc2CC1C` (racemic) [Example 151, (±)-7,8-dimethoxy-N,4-dimethyl-1-{4-[5-methyl-3-(trifluoromethyl)-1H-pyrazol-1-yl]phenyl}-4,5-dihydro-3H-2,3-benzodiazepine-3-carboxamide], the IC50 with MOLM-13 cells worked out at 1310 nM; on BRD4 (BD1) it was 20 nM.

For `CNC(=O)N1N=C(c2ccc(-n3cncn3)cc2)c2cc(OC)c(OC)cc2CC1C` (racemic) [Example 152, (±)-7,8-Dimethoxy-N,4-dimethyl-1-[4-(1H-1,2,4-triazol-1-yl)phenyl]-4,5-dihydro-3H-2,3-benzodiazepine-3-carboxamide], the IC50 stood at 430 nM in the test with MOLM-13 cells and 70 nM on BRD4 (BD1).

`CNC(=O)N1N=C(c2ccc(-n3ncnc3C)cc2)c2cc(OC)c(OC)cc2CC1C` (racemic) [Example 153, (±)-7,8-dimethoxy-N,4-dimethyl-1-[4-(5-methyl-1H-1,2,4-triazol-1-yl)phenyl]-4,5-dihydro-3H-2,3-benzodiazepine-3-carboxamide]: the IC50 was found to be 480 nM in the test with MOLM-13 cells and 110 nM on BRD4 (BD1).

As for `CNC(=O)N1N=C(c2ccc(-n3nc(C)nc3C)cc2)c2cc(OC)c(OC)cc2CC1C` (racemic) [Example 154, (±)-1-[4-(3,5-dimethyl-1H-1,2,4-triazol-1-yl)phenyl]-7,8-dimethoxy-N,4-dimethyl-4,5-dihydro-3H-2,3-benzodiazepine-3-carboxamide], the values for the IC50 with MOLM-13 cells and on BRD4 (BD1) were 2080 nM and 170 nM, respectively.

For the compound `CNC(=O)N1N=C(c2ccc(-c3c(C)noc3C)cc2)c2cc(C(C)(C)C)ccc2CC1C` (racemic) [Example 155, (±)-8-tert-Butyl-1-[4-(3,5-dimethylisoxazol-4-yl)phenyl]-N,4-dimethyl-4,5-dihydro-3H-2,3-benzodiazepine-3-carboxamide], the IC50 with MOLM-13 cells was determined as 380 nM; on BRD4 (BD1), 40 nM.

For `CNC(=O)N1N=C(c2ccc(-c3c(C)noc3C)cc2)c2cc(OC(F)(F)F)c(Cl)cc2CC1C` (racemic) [Example 156, (±)-7-Chloro-1-[4-(3,5-dimethylisoxazol-4-yl)phenyl]-N,4-dimethyl-8-(trifluoromethoxy)-4,5-dihydro-3H-2,3-benzodiazepine-3-carboxamide], the results for the IC50 with MOLM-13 cells and on BRD4 (BD1) were 790 nM and 230 nM, respectively.

With `CNC(=O)N1N=C(c2ccc(-c3c(C)noc3C)cc2)c2cc(C)ccc2CC1C` (racemic) [Example 158, (±)-1-[4-(3,5-dimethylisoxazol-4-yl)phenyl]-N,4,8-trimethyl-4,5-dihydro-3H-2,3-benzodiazepine-3-carboxamide], the IC50 in the test with MOLM-13 cells was 430 nM; at BRD4 (BD1) it was 60 nM.

Regarding `CNC(=O)N1N=C(c2ccc(-c3c(C)noc3C)cc2)c2cc(OC(F)F)c(OC(F)F)cc2CC1C` (racemic) [Example 160, (±)-7,8-Bis(difluoromethoxy)-1-[4-(3,5-dimethylisoxazol-4-yl)phenyl]-N,4-dimethyl-4,5-dihydro-3H-2,3-benzodiazepine-3-carboxamide], the IC50 stood at 400 nM in the test with MOLM-13 cells and 260 nM at BRD4 (BD1).

In the case of `CCOc1cc2c(cc1OCC)C(c1ccc(-c3c(C)noc3C)cc1)=NN(C(=O)NC)C(C)C2` (racemic) [Example 161, (±)-1-[4-(3,5-Dimethylisoxazol-4-yl)phenyl]-7,8-diethoxy-N,4-dimethyl-4,5-dihydro-3H-2,3-benzodiazepine-3-carboxamide], the figures for the 50% inhibitory concentration (IC50) in the test with MOLM-13 cells and at BRD4 (BD1) were 280 nM and 110 nM, respectively.

Turning to `CNC(=O)N1N=C(c2ccc(-c3c(C)noc3C)cc2)c2cc(OC)c(OC(F)F)cc2CC1C` (racemic) [Example 162, (±)-7-(difluoromethoxy)-1-[4-(3,5-dimethylisoxazol-4-yl)phenyl]-8-methoxy-N,4-dimethyl-4,5-dihydro-3H-2,3-benzodiazepine-3-carboxamide], the IC50 with MOLM-13 cells amounted to 380 nM; on BRD4 (BD1), 130 nM.

Take `CNC(=O)N1N=C(c2ccc(N3CCN(C)CC3)cc2)c2cc(OC)c(OC(F)F)cc2CC1C` (racemic) [Example 163, (±)-7-(difluoromethoxy)-8-methoxy-N,4-dimethyl-1-[4-(4-methylpiperazin-1-yl)phenyl]-4,5-dihydro-3H-2,3-benzodiazepine-3-carboxamide]: the IC50 in the test with MOLM-13 cells stood at 210 nM; at BRD4 (BD1), 60 nM.

`CNC(=O)N1N=C(c2ccc(Cl)cc2)c2cc(OCCCN3CCN(C)CC3)ccc2CC1C` (racemic) [Example 164, (±)-1-(4-chlorophenyl)-N,4-dimethyl-8-[3-(4-methylpiperazin-1-yl)propoxy]-4,5-dihydro-3H-2,3-benzodiazepine-3-carboxamide]: the IC50 in the test on MOLM-13 cells stood at 580 nM; on BRD4 (BD1) it was 60 nM.

`CNC(=O)N1N=C(c2ccc(Cl)cc2)c2cc(OCCCN3CCOCC3)ccc2CC1C` (racemic) [Example 165, (±)-1-(4-chlorophenyl)-N,4-dimethyl-8-[3-(morpholin-4-yl)propoxy]-4,5-dihydro-3H-2,3-benzodiazepine-3-carboxamide]: the IC50 in the test with MOLM-13 cells turned out to be 880 nM; on BRD4 (BD1), 130 nM.

On to `CNC(=O)N1N=C(c2ccc(Cl)cc2)c2cc(OCCN3CCN(C)CC3)ccc2CC1C` (racemic) [Example 166, (±)-1-(4-chlorophenyl)-N,4-dimethyl-8-[2-(4-methylpiperazin-1-yl)ethoxy]-4,5-dihydro-3H-2,3-benzodiazepine-3-carboxamide], for which the IC50 turned out to be 670 nM with MOLM-13 cells and 270 nM on BRD4 (BD1).

For the compound `CNC(=O)N1N=C(c2ccc(-c3c(C)noc3C)cc2)c2cc(OC)c(C#N)cc2CC1C` (racemic) [Example 170, (±)-7-Cyano-1-[4-(3,5-dimethylisoxazol-4-yl)phenyl]-8-methoxy-N,4-dimethyl-4,5-dihydro-3H-2,3-benzodiazepine-3-carboxamide], the IC50 in the test with MOLM-13 cells stood at 520 nM; on BRD4 (BD1), 70 nM.

For `CNC(=O)N1N=C(c2ccc(N3CCOCC3)cc2)c2cc(NC(C)=O)ccc2CC1C` (racemic) [Example 171, (±)-8-Acetamido-N,4-dimethyl-1-[4-(morpholin-4-yl)phenyl]-4,5-dihydro-3H-2,3-benzodiazepine-3-carboxamide], the IC50 in the test with MOLM-13 cells was 1910 nM; at BRD4 (BD1) it was 120 nM.

Take `CNC(=O)N1N=C(c2ccc(N3CCN(C)CC3)cc2)c2cc(NC(C)=O)ccc2CC1C` (racemic) [Example 172, (±)-8-Acetamido-N,4-dimethyl-1-[4-(4-methylpiperazin-1-yl)phenyl]-4,5-dihydro-3H-2,3-benzodiazepine-3-carboxamide]: the IC50 in the test with MOLM-13 cells was found to be 1910 nM; at BRD4 (BD1), 130 nM.

On to `CNC(=O)N1N=C(c2ccc(-c3c(C)noc3C)cc2)c2cc(NC(C)=O)ccc2CC1C` (racemic) [Example 173, (±)-8-Acetamido-1-[4-(3,5-dimethylisoxazol-4-yl)phenyl]-N,4-dimethyl-4,5-dihydro-3H-2,3-benzodiazepine-3-carboxamide], for which the IC50 amounted to 1210 nM in the test with MOLM-13 cells and 180 nM at BRD4 (BD1).

Regarding `CNC(=O)N1N=C(c2ccc(-c3c(C)noc3C)cc2)c2cc(-n3nc(C)cc3C)ccc2CC1C` (racemic) [Example 175, (±)-1-[4-(3,5-Dimethylisoxazol-4-yl)phenyl]-8-(3,5-dimethyl-1H-pyrazol-1-yl)-N,4-dimethyl-4,5-dihydro-3H-2,3-benzodiazepine-3-carboxamide], the IC50 was 440 nM with MOLM-13 cells and 190 nM at BRD4 (BD1).

Take `CNC(=O)N1N=C(c2ccc(-c3c(C)noc3C)cc2)c2cc(N3CCOCC3)ccc2CC1C` (racemic) [Example 176, (±)-1-[4-(3,5-Dimethylisoxazol-4-yl)phenyl]-N,4-dimethyl-8-(morpholin-4-yl)-4,5-dihydro-3H-2,3-benzodiazepine-3-carboxamide]: the values for the IC50 with MOLM-13 cells and at BRD4 (BD1) were 520 nM and 40 nM, respectively.

For the compound `CNC(=O)N1N=C(c2ccc(N3CCN(CCO)CC3)cc2)c2cc(OC)c(OC)cc2CC1C` (racemic) [Example 178, (±)-1-{4-[4-(2-hydroxyethyl)piperazin-1-yl]phenyl}-7,8-dimethoxy-N,4-dimethyl-4,5-dihydro-3H-2,3-benzodiazepine-3-carboxamide], the IC50 in the test on MOLM-13 cells came out at 180 nM; at BRD4 (BD1), 70 nM.

Consider `CNC(=O)N1N=C(c2ccc(N3CCC(OC)CC3)cc2)c2cc(OC)c(OC)cc2CC1C` (racemic) [Example 179, (±)-7,8-dimethoxy-1-[4-(4-methoxypiperidin-1-yl)phenyl]-N,4-dimethyl-4,5-dihydro-3H-2,3-benzodiazepine-3-carboxamide], for which the IC50 in the test on MOLM-13 cells is 290 nM; at BRD4 (BD1) it was 70 nM.

Regarding `CNC(=O)N1N=C(c2ccc(N3CCC(N(C)C)CC3)cc2)c2cc(OC)c(OC)cc2CC1C` (racemic) [Example 180, (±)-1-{4-[4-(dimethylamino)piperidin-1-yl]phenyl}-7,8-dimethoxy-N,4-dimethyl-4,5-dihydro-3H-2,3-benzodiazepine-3-carboxamide], the IC50 in the test on MOLM-13 cells amounted to 370 nM; on BRD4 (BD1), 70 nM.
